# According to patent US9776979B2, “EBI2 modulators” (Sanford-Burnham Medical Research Institute, priority 2013, dated 2017):
# Target: EBI2 (Homo sapiens, UniProt P32249)
# Test: Cell-based luminescent assay (EBI2 modulation)
# Details: not given
# Outline: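 Cells plated overnight at 37° C, then exposed to compound at 4-5 uM final with 80 nM 7a,25-OHC agonist for 60 min at 37° C. Luminescence read after 60 min detection at 25° C in the dark; values normalized to neutral and stimulator controls and plate-pattern corrected.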
# Sequence of EBI2 (P32249 whole entry): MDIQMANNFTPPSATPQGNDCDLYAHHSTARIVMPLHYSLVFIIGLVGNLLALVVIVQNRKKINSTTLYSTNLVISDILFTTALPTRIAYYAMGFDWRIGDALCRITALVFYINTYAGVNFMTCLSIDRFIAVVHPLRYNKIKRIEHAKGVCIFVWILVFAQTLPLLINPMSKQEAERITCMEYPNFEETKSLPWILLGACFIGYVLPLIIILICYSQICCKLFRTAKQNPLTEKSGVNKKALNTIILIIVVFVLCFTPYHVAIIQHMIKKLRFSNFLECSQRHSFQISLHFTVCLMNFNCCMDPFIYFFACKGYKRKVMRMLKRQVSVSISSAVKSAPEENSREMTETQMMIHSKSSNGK
row,SMILES,IC50 [nM]
1,"Cc1cccc(CN2CCN(C(=O)/C=C/c3ccccc3)CC2)c1 [Compound C201, (2E)-1-{4-[(3-methylphenyl)methyl]piperazinyl}-3-phenylprop-2-en-1-one]",< 100
2,"O=C(c1cc2cc(Cl)ccc2[nH]1)N1CCC(Nc2ccc(F)cc2)CC1 [Compound C226, 5-chloroindol-2-yl 4-[(4-fluorophenyl)amino]piperidyl ketone]",< 100

# Same assay, conditions: cell-based luminescence; 7a,25-OHC final assay concentration 80 nM; 60 minutes incubation; read-out: IC50
row,SMILES,IC50 [nM]
1,"O=C(C=Cc1ccc2c(c1)OCO2)N1CCN(Cc2ccc(F)cc2C(F)(F)F)CC1 [Compound C186, 3-(2H-benzo[3,4-d]1,3-dioxolan-5-yl)-1-(4-{[4-fluoro-2-(trifluoromethyl)phenyl]methyl}piperazinyl)prop-2-en-1-one]",500 to 5000
2,"O=C(Nc1ccc(F)cc1)c1cccc(CN2CCN(C(=O)c3cc4cc(Cl)ccc4[nH]3)CC2)c1 [Compound C187, [3-({4-[(5-chloroindol-2-yl)carbonyl]piperazinyl}methyl)phenyl]-N-(4-fluorophenyl)carboxamide]",500 to 5000
3,"O=C(O)c1cccc(CN2CCN(C(=O)c3cc4cc(Cl)ccc4[nH]3)CC2)c1 [Compound C188, 3-({4-[(5-chloroindol-2-yl)carbonyl]piperazinyl}methyl)benzoic acid]",500 to 5000
4,"O=C(c1cc2ccc(F)cc2[nH]1)N1CCN(C(=O)c2ccc(F)cc2C(F)(F)F)CC1 [Compound C189, 6-fluoroindol-2-yl 4-{[4-fluoro-2-(trifluoromethyl)phenyl]carbonyl}piperazinyl ketone]",500 to 5000
5,"CC(C)(C)c1ccc(S(=O)(=O)N2CCN(C(=O)/C=C/c3ccccc3F)CC2)cc1 [Compound C190, (2E)-1-(4-{[4-(tert-butyl)phenyl]sulfonyl}piperazinyl)-3-(2-fluorophenyl)prop-2-en-1-one]",500 to 5000
6,"O=C(/C=C/c1ccccc1)N1CCN(Cc2ccccn2)CC1 [Compound C191, (2E)-3-phenyl-1-[4-(2-pyridylmethyl)piperazinyl]prop-2-en-1-one]",500 to 5000
7,"O=C(/C=C/c1ccc(F)cc1)N1CCCN(C(c2ccccc2)c2ccccc2)CC1 [Compound C192, (2E)-1-[4-(diphenylmethyl)(1,4-diazaperhydroepinyl)]-3-(4-fluorophenyl)prop-2-en-1-one]",500 to 5000
8,"O=C(c1cc2ncccc2[nH]1)N1CCN(C(c2ccccc2)c2ccccc2)CC1 [Compound C193, 4-(diphenylmethyl)piperazinyl pyrrolo[4,5-b]pyridin-2-yl ketone]",500 to 5000
9,"O=C(c1ccc(P(=O)(O)O)cc1)N1CCN(C(=O)c2cc3cc(Cl)ccc3[nH]2)CC1 [Compound C194, 5-chloroindol-2-yl 4-[(4-phosphonophenyl)carbonyl]piperazinyl ketone]",500 to 5000
10,"O=C(C#Cc1cc(F)cc(F)c1)N1CCN(Cc2ccc(C(F)(F)F)cc2)CC1 [Compound C195, 3-(3,5-difluorophenyl)-1-(4-{[4-(trifluoromethyl)phenyl]methyl}piperazinyl)prop-2-yn-1-one]",500 to 5000
11,"Cc1ccccc1/C=C/C(=O)N1CCN(S(=O)(=O)c2ccccc2)CC1 [Compound C196, (2E)-3-(2-methylphenyl)-1-[4-(phenylsulfonyl)piperazinyl]prop-2-en-1-one]",500 to 5000
12,"O=C(C#Cc1cc(F)cc(F)c1)N1CCN(Cc2ccc(F)cc2)CC1 [Compound C197, 3-(3,5-difluorophenyl)-1-{4-[(4-fluorophenyl)methyl]piperazinyl}prop-2-yn-1-one]",500 to 5000
13,"O=C(/C=C/c1ccc(F)cc1)N1CCCN(S(=O)(=O)/C=C/c2ccccc2)CC1 [Compound C198, (2E)-1-{4-[((1E)-2-phenylvinyl)sulfonyl](1,4-diazaperhydroepinyl)}-3-(4-fluorophenyl)prop-2-en-1-one]",500 to 5000
14,"O=C(c1cc2cc(Cl)ccc2[nH]1)N1CCC(N2CCOCC2)CC1 [Compound C199, 5-chloroindol-2-yl 4-morpholin-4-ylpiperidyl ketone]",500 to 5000
15,"O=C(c1ccc(C(F)(F)F)c(F)c1)N1CCN(C(=O)c2cc3cc(C(F)(F)F)ccc3[nH]2)CC1 [Compound C200, 4-{[3-fluoro-4-(trifluoromethyl)phenyl]carbonyl}piperazinyl 5-(trifluoromethyl)indol-2-yl ketone]",< 100
16,"CC(C)(C)c1ccc(S(=O)(=O)N2CCN(C(=O)/C=C/c3ccc(F)cc3)CC2)cc1 [Compound C202, (2E)-1-(4-{[4-(tert-butyl)phenyl]sulfonyl}piperazinyl)-3-(4-fluorophenyl)prop-2-en-1-one]",< 100
17,"O=C(/C=C/c1ccccc1)N1CCN(Cc2ccc(Br)cc2)CC1 [Compound C203, (2E)-1-{4-[(4-bromophenyl)methyl]piperazinyl}-3-phenylprop-2-en-1-one]",< 100
18,"O=C(c1ccc(-c2nnn[nH]2)cc1)N1CCN(C(=O)c2cc3cc(Cl)ccc3[nH]2)CC1 [Compound C204, 5-chloroindol-2-yl 4-[(4-(1H-1,2,3,4-tetraazol-5-yl)phenyl)carbonyl]piperazinyl ketone]",< 100
19,"O=C(/C=C/c1ccc(F)cc1)N1CCN(S(=O)(=O)c2ccccc2)CC1 [Compound C205, (2E)-3-(4-fluorophenyl)-1-[4-(phenylsulfonyl)piperazinyl]prop-2-en-1-one]",< 100

row,SMILES,IC50 [nM]
1,"O=C(/C=C/c1ccc(F)cc1)N1CCN(S(=O)(=O)c2ccc([N+](=O)[O-])cc2)CC1 [Compound C206, (2E)-3-(4-fluorophenyl)-1-{4-[(4-nitrophenyl)sulfonyl]piperazinyl}prop-2-en-1-one]",< 100
2,"O=C(c1cc2cc(Br)ccc2[nH]1)N1CCN(C(=O)c2ccc(F)cc2C(F)(F)F)CC1 [Compound C208, 5-bromoindol-2-yl 4-{[4-fluoro-2-(trifluoromethyl)phenyl]carbonyl}piperazinyl ketone]",< 100
3,"O=C(/C=C/c1ccc(F)cc1)N1CCN(S(=O)(=O)c2cccc(Br)c2)CC1 [Compound C209, (2E)-1-{4-[(3-bromophenyl)sulfonyl]piperazinyl}-3-(4-fluorophenyl)prop-2-en-1-one]",< 100
4,"O=C(/C=C/c1ccc(Cl)c(Cl)c1)N1CCN(Cc2ccc(F)cc2)CC1 [Compound C210, (2E)-3-(3,4-dichlorophenyl)-1-{4-[(4-fluorophenyl)methyl]piperazinyl}prop-2-en-1-one]",< 100
5,"O=C(c1cc2cc(C(F)(F)F)ccc2[nH]1)N1CCN(Cc2ccc(F)cc2)CC1 [Compound C211, 4-[(4-fluorophenyl)methyl]piperazinyl 5-(trifluoromethyl)indol-2-yl ketone]",< 100
6,"O=C(/C=C/c1ccc(F)cc1)N1CCN(S(=O)(=O)c2cccc(F)c2)CC1 [Compound C212, (2E)-3-(4-fluorophenyl)-1-{4-[(3-fluorophenyl)sulfonyl]piperazinyl}prop-2-en-1-one]",< 100
7,"CCOc1ccc(/C=C/C(=O)N2CCN(S(=O)(=O)c3ccc(Br)cc3)CC2)cc1 [Compound C213, (2E)-1-{4-[(4-bromophenyl)sulfonyl]piperazinyl}-3-(4-ethoxyphenyl)prop-2-en-1-one]",< 100
8,"O=C(/C=C/c1ccc(Cl)c(Cl)c1)N1CCN(Cc2ccc(Cl)cc2)CC1 [Compound C214, (2E)-3-(3,4-dichlorophenyl)-1-{4-[(4-chlorophenyl)methyl]piperazinyl}prop-2-en-1-one]",< 100
9,"O=C(c1cc2ccc(F)cc2[nH]1)N1CCN(C(c2ccccc2)c2ccccc2)CC1 [Compound C215, 4-(diphenylmethyl)piperazinyl 6-fluoroindol-2-yl ketone]",< 100
10,"O=C(C=Cc1ccc2c(c1)OCO2)N1CCN(C(=O)c2ccc(F)cc2)CC1 [Compound C216, 3-(2H-benzo[3,4-d]1,3-dioxolen-5-yl)-1-{4-[(4-fluorophenyl)carbonyl]piperazinyl}prop-2-en-1-one]",< 100
11,"O=C(c1cc2cc(-c3ccccc3)ccc2[nH]1)N1CCN(C(c2ccccc2)c2ccccc2)CC1 [Compound C217, 4-(diphenylmethyl)piperazinyl 5-phenylindol-2-yl ketone]",< 100
12,"O=C(/C=C/c1ccc(C(F)(F)F)cc1)N1CCN(C(=O)c2cc3cc(Cl)ccc3[nH]2)CC1 [Compound C218, (2E)-1-{4-[(5-chloroindol-2-yl)carbonyl]piperazinyl}-3-[4-(trifluoromethyl)phenyl]prop-2-en-1-one]",< 100
13,"Cc1ccc2[nH]c(C(=O)N3CCN(Cc4ccc(F)cc4)CC3)cc2c1 [Compound C219, 4-[(4-fluorophenyl)methyl]piperazinyl 5-methylindol-2-yl ketone]",< 100
14,"COc1ccc(-c2ccc3[nH]c(C(=O)N4CCN(C(c5ccccc5)c5ccccc5)CC4)cc3c2)cc1 [Compound C220, 4-(diphenylmethyl)piperazinyl 5-(4-methoxyphenyl)indol-2-yl ketone]",< 100
15,"O=C(/C=C/c1ccc(F)cc1)N1CCN(S(=O)(=O)c2ccc3ccccc3c2)CC1 [Compound C221, (2E)-3-(4-fluorophenyl)-1-[4-(2-naphthylsulfonyl)piperazinyl]prop-2-en-1-one]",< 100
16,"CCN1CCN(C(=O)/C=C/c2ccc(Br)cc2)CC1 [Compound C222, (2E)-3-(4-bromophenyl)-1-(4-ethylpiperazinyl)prop-2-en-1-one]",< 100
17,"Nc1ccc2cc(C(=O)N3CCN(C(c4ccccc4)c4ccccc4)CC3)ccc2c1 [Compound C223, 6-amino(2-naphthyl) 4-(diphenylmethyl)piperazinyl ketone]",< 100
18,"Cc1ccc(C#CC(=O)N2CCN(C(=O)c3ccc(F)cc3C(F)(F)F)CC2)cc1 [Compound C224, 1-(4-{[4-fluoro-2-(trifluoromethyl)phenyl]carbonyl}piperazinyl)-3-(4-methylphenyl)prop-2-yn-1-one]",< 100
19,"O=C(/C=C/c1ccc(F)cc1)N1CCN(S(=O)(=O)c2cc(Cl)ccc2Cl)CC1 [Compound C225, (2E)-1-{4-[(2,5-dichlorophenyl)sulfonyl]piperazinyl}-3-(4-fluorophenyl)prop-2-en-1-one]",< 100
